# Laboratory results published in PubChem BioAssay (NCI).
#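 Protocol summary: plate cells (96-well), add compound at 5 concentrations, incubate 48 h, interpolate endpoints linearly. TGI is the concentration that stops growth completely.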 Where a SMILES comes first, the peptide text is derived from it. The star is where a group is joined. Boc = CC(C)(C)OC(=O)*; OSu = O=C1CCC(=O)N1O*
# Assays:
# Assay in all cases: inhibition of tumour cell growth, NCI panel, 48 h
# OVCAR-5 ovarian = test system: OVCAR-5 ovarian
# MALME-3M melanoma = test system: MALME-3M melanoma
# IGROV1 ovarian = test system: IGROV1 ovarian
# SK-MEL-2 melanoma = test system: SK-MEL-2 melanoma
# OVCAR-8 ovarian = test system: OVCAR-8 ovarian
# PC-3 prostate = test system: PC-3 prostate
# SNB-19 CNS = test system: SNB-19 CNS
# M14 melanoma = test system: M14 melanoma
# RPMI-8226 leukemia = test system: RPMI-8226 leukemia
# EKVX NSCLC = test system: EKVX NSCLC
SMILES,TGI (OVCAR-5 ovarian),TGI (MALME-3M melanoma),TGI (IGROV1 ovarian),TGI (SK-MEL-2 melanoma),TGI (OVCAR-8 ovarian),TGI (PC-3 prostate),TGI (SNB-19 CNS),TGI (M14 melanoma),TGI (RPMI-8226 leukemia),TGI (EKVX NSCLC)
O=C(c1ccco1)N1CCCN(C(=O)c2ccco2)C1=S,> 100 µM,> 100 µM,> 100 µM,> 100 µM,> 100 µM,> 100 µM,> 100 µM,> 100 µM,> 100 µM,> 100 µM
O=S(=O)(O)c1cc(O)c2c(N=Cc3ccccc3O)cc(S(=O)(=O)O)cc2c1,> 100 µM,> 100 µM,> 100 µM,> 100 µM,> 100 µM,> 100 µM,> 100 µM,> 100 µM,> 100 µM,> 100 µM
Cc1c(Cl)nc(Nc2nc3ccccc3[nH]2)nc1Cl,> 100 µM,> 100 µM,> 100 µM,> 100 µM,> 100 µM,> 100 µM,> 100 µM,> 100 µM,> 100 µM,84.5 µM
COc1ccc2nc3ccc(OC)cc3c(SCCO)c2c1,> 100 µM,> 96.2 µM,> 51.1 µM,> 84 µM,> 55.4 µM,> 100 µM,> 100 µM,> 100 µM,48.9 µM,> 100 µM
CCC(CON(C)c1ccccc1)(SC)SC,> 100 µM,> 100 µM,> 100 µM,> 100 µM,> 100 µM,> 100 µM,> 100 µM,> 100 µM,> 100 µM,> 100 µM
CC(=O)OCCCOCn1c(Cc2ccccc2)c(C)c(=O)[nH]c1=O,> 100 µM,> 100 µM,> 100 µM,> 100 µM,> 100 µM,> 100 µM,> 100 µM,> 100 µM,> 100 µM,> 100 µM
Nn1c(COc2cccc(OCc3n[nH]c(=S)n3N)c2)n[nH]c1=S,> 100 µM,> 100 µM,> 100 µM,> 100 µM,> 100 µM,> 100 µM,> 100 µM,> 100 µM,> 100 µM,> 100 µM
COC(=O)[C@]1(c2cc3ccccc3n2S(=O)(=O)c2ccccc2)CC2CN(C(C)=O)C1CC2=O (stereo not given in full),13.1 µM,6.69 µM,5.22 µM,7.52 µM,11.1 µM,3.83 µM,12.5 µM,4.63 µM,4.26 µM,6.17 µM
CCN(CC)CC1CCCCN1CC(=O)N1c2ccccc2NC(=O)CC1C (stereo not given),> 100 µM,> 100 µM,> 100 µM,> 100 µM,> 100 µM,> 100 µM,> 100 µM,> 100 µM,> 100 µM,> 100 µM
O=C(NCCC1([N+](=O)[O-])CCN(C(=O)c2ccccc2)CC1)c1ccccc1,> 100 µM,> 100 µM,> 100 µM,> 100 µM,> 100 µM,> 100 µM,> 100 µM,> 100 µM,> 100 µM,> 100 µM
C1CCC2(CC1)O[C@@H]1[C@@H](O2)[C@@H](O[C@H]2O[C@@H]3COC4(CCCCC4)O[C@H]3[C@@H]3OC4(CCCCC4)O[C@@H]23)O[C@@H]2COC3(CCCCC3)O[C@@H]12,> 100 µM,> 100 µM,> 100 µM,> 100 µM,> 100 µM,> 100 µM,> 100 µM,> 100 µM,> 100 µM,> 100 µM
CCCN1C(=O)CC(C)N(Cc2ccccc2Cl)C1=S (stereo not given),> 100 µM,56.7 µM,> 100 µM,44.1 µM,72.1 µM,55.7 µM,> 100 µM,79.9 µM,70.4 µM,93.7 µM
S=C(NC1=NCC(CN2CCN(c3ccccc3)CC2)O1)Nc1ccccc1 (stereo not given),> 100 µM,> 100 µM,> 100 µM,> 100 µM,> 100 µM,> 100 µM,> 100 µM,> 100 µM,> 100 µM,> 100 µM
COC(=O)c1c(O)ccc2c1c1c(n2Cc2ccccc2Cl)C(=O)c2ccccc2C1=O,39.4 µM,31.4 µM,28.3 µM,33.8 µM,51.5 µM,26.3 µM,33.7 µM,34 µM,29.5 µM,32.5 µM
CC(C)/C(Cl)=N\OC(=O)Nc1ccccc1F,33.3 µM,8.72 µM,33.4 µM,33.2 µM,31.4 µM,30.9 µM,> 57.3 µM,13.3 µM,92.6 µM,30.7 µM
O=C1NC(SSC2=NNC3(C(=O)N2)c2ccccc2-c2ccccc23)=NNC12c1ccccc1-c1ccccc12,> 10 µM,> 10 µM,> 10 µM,> 10 µM,> 10 µM,> 10 µM,> 10 µM,> 10 µM,> 10 µM,> 10 µM
COC(=O)C1C/C(=C/N(C)C)C(=S)N1 (stereo not given),> 100 µM,> 100 µM,> 100 µM,> 100 µM,> 100 µM,> 100 µM,> 100 µM,> 100 µM,> 100 µM,> 100 µM
COc1ccc2c(CCN)c(C(=O)O)[nH]c2c1,> 100 µM,> 100 µM,> 100 µM,> 100 µM,> 100 µM,> 100 µM,> 100 µM,> 100 µM,> 100 µM,> 100 µM

SMILES,TGI (OVCAR-5 ovarian),TGI (MALME-3M melanoma),TGI (IGROV1 ovarian),TGI (SK-MEL-2 melanoma),TGI (OVCAR-8 ovarian),TGI (PC-3 prostate),TGI (SNB-19 CNS),TGI (M14 melanoma),TGI (RPMI-8226 leukemia),TGI (EKVX NSCLC)
Cc1cnc2sn(-c3ccc(Oc4ccccc4)cc3)c(=O)c2c1,35.3 µM,9.07 µM,45.5 µM,> 100 µM,> 100 µM,29.8 µM,46 µM,30.8 µM,> 100 µM,27.7 µM
CC(=O)OCCOCn1c2c(c(=S)[nH]c1=O)CCC2,> 100 µM,> 100 µM,> 100 µM,> 100 µM,> 100 µM,> 100 µM,> 100 µM,> 100 µM,> 100 µM,> 100 µM
CN(CCn1cnc2c1c(=O)n(C)c(=O)n2C)C1CCCCC1,> 100 µM,> 100 µM,> 100 µM,> 100 µM,> 100 µM,> 100 µM,> 100 µM,> 100 µM,> 100 µM,> 100 µM
CCCCC(=O)NS(=NC(=O)c1ccccc1)C(Cl)(Cl)Cl (stereo not given),> 100 µM,> 100 µM,> 100 µM,> 100 µM,> 100 µM,> 100 µM,> 100 µM,> 100 µM,> 100 µM,> 100 µM
COC(=O)CCC(=O)NC1=C(Nc2ccc(OC)cc2)C(=O)c2ccccc2C1=O,31 µM,4.69 µM,26 µM,20.1 µM,75.6 µM,> 92.2 µM,37.7 µM,19.7 µM,75.2 µM,38.3 µM
CCCSc1ccc2[nH]c(N3C(=O)/C(=C/c4ccco4)N=C3c3ccccc3)cc2c1,> 50 µM,> 50 µM,> 50 µM,24.4 µM,> 50 µM,> 50 µM,> 50 µM,> 50 µM,> 50 µM,> 50 µM
CC(NC(=O)C(NC(=O)OC(C)(C)C)C(C)C)C(=O)NCC(=O)ON1C(=O)CCC1=O (stereo not drawn) (Boc-Val-Ala-Gly-OSu; configuration not given here),> 100 µM,> 100 µM,> 100 µM,> 100 µM,> 100 µM,> 100 µM,> 100 µM,> 100 µM,> 100 µM,> 100 µM
NC(N)=N/N=C/c1nc2n(c1[N+](=O)[O-])CCS2,> 100 µM,30.8 µM,> 100 µM,44.7 µM,> 100 µM,> 100 µM,> 100 µM,> 100 µM,> 100 µM,76.5 µM
CN(C)CCNC(=O)c1cccc2c(NCCN(C)C)c3ccccc3nc12,11.1 µM,15.4 µM,10.8 µM,17.6 µM,12.4 µM,7.34 µM,26.3 µM,18.6 µM,7.92 µM,8.03 µM
CCSc1sc(=Nc2ccc(N=c3sc(C)c(SC)s3)cc2)sc1-c1ccc(C)cc1,> 100 µM,> 100 µM,> 100 µM,> 100 µM,> 100 µM,> 100 µM,> 100 µM,> 100 µM,> 100 µM,> 100 µM
Cc1[nH]c2c(c1C)S(=O)(=O)c1cc3ccccc3nc1N2,59 µM,45.2 µM,28 µM,> 100 µM,30.4 µM,> 100 µM,70.6 µM,62.5 µM,40.4 µM,> 100 µM
CCCN(CCCC(NC(C)=O)C(=O)NCc1ccccc1)C(=O)N(CCCl)N=O (stereo not given),64.6 µM,39.7 µM,57.3 µM,43.9 µM,12.7 µM,> 100 µM,> 84.9 µM,31.7 µM,69 µM,59 µM
COc1ccc2nc3c([N+](=O)[O-])ccc4c3c(c2c1)NCCN4CCO,2.95 µM,1.45 µM,3.22 µM,1.87 µM,2.01 µM,1.56 µM,3.08 µM,1.78 µM,2.61 µM,2.97 µM
COC(=O)NCCc1[nH]nc2c1C(=O)C=C(N1CCOCC1)C2=O,> 100 µM,> 100 µM,> 100 µM,> 100 µM,> 100 µM,> 100 µM,> 100 µM,> 100 µM,> 100 µM,> 100 µM
C[C@H](CCC(=O)NCCS(=O)(=O)O)[C@H]1CC[C@H]2[C@@H]3CC[C@@H]4C[C@H](O)CC[C@]4(C)[C@H]3CC[C@]12C,> 100 µM,> 100 µM,> 100 µM,> 100 µM,> 100 µM,> 100 µM,> 100 µM,> 100 µM,> 100 µM,> 100 µM
CCCCC(C#N)(OP1(=O)OC(c2ccccc2)C(C)N1C)c1ccccc1 (stereo not given),32.2 µM,30.6 µM,32.3 µM,34.2 µM,38.8 µM,32.7 µM,36.4 µM,38.3 µM,53.2 µM,39.8 µM
COC(=O)C(Cc1c(C2Nc3ccccc3C2CC(NC(=O)CNC(C)=O)C(=O)OC)[nH]c2ccccc12)NC(=O)CNC(C)=O (stereo not given),> 100 µM,> 100 µM,> 100 µM,> 100 µM,> 100 µM,> 100 µM,> 100 µM,> 100 µM,> 100 µM,> 100 µM
